Reference: US20180250280A1 (BAYER PHARMA AKTIENGESELLSCHAFT, priority 2015, published 2018)

Legend:
human plasma kallikrein = molecular target: T1, human plasma kallikrein (Homo sapiens, UniProt P03952); assay: Determination of the plasma kallikrein activity (fluorogenic peptide substrate, AMC cleavage); assay type: biochemical; conditions: plasma kallikrein from Kordia 0.6 nM; substrate H-Pro-Phe-Arg-AMC 10 μM; 30 min at 22° C.; in some cases averages from multiple determinations
T1 construct: purchased Kordia
T1 sequence (P03952 391-638 limits assumed): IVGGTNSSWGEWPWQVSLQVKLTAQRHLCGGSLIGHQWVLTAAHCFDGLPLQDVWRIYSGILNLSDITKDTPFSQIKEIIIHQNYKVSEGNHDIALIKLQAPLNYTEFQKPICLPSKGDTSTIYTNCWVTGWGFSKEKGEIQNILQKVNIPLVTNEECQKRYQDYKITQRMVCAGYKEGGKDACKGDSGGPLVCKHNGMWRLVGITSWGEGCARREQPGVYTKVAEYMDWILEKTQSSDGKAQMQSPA
T1 sequence (P03952 20-390 partner limits assumed): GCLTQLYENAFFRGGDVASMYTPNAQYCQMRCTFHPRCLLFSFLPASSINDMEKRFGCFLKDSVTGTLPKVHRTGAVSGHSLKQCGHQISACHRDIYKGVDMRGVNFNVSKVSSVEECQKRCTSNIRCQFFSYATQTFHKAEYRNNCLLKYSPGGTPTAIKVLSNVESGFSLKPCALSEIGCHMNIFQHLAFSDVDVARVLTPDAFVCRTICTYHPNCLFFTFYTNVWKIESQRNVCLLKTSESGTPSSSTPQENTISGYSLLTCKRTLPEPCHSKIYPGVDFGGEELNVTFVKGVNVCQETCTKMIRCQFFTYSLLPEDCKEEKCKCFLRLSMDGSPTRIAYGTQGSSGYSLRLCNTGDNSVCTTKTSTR
Experimental: (§1) To determine the plasma kallikrein inhibition of the substances according to the invention, a biochemical test system is used which utilizes the reaction of a peptidic plasma kallikrein substrate to determine the enzymatic activity of human plasma kallikrein. Here, plasma kallikrein cleaves from the peptic plasma kallikrein substrate the C-terminal aminomethylcoumarin (AMC), the fluorescence of which is measured. The determinations are conducted in microtitre plates.
Test substances are dissolved in dimethyl sulfoxide and serially diluted in dimethyl sulfoxide (3000 μM to 0.0078 μM; resulting final concentrations in the test: 50 μM to 0.00013 μM). 1 μl of the diluted substance solutions is placed into each of the wells of white microtitre plates from Greiner (384 wells). 20 μl of assay buffer (50 mM Tris/HCl pH 7.4; 100 mM sodium chloride solution; 5 mM calcium chloride solution; 0.1% of bovine serum albumin) and 20 μl of plasma kallikrein from Kordia (0.6 nM in assay buffer) are then added successively. After 15 min of incubation, the enzyme reaction is started by addition of 20 μl of the substrate H-Pro-Phe-Arg-AMC dissolved in assay buffer (10 μM in assay buffer) from Bachem, the mixture is incubated at room temperature (22° C.) for 30 min and fluorescence is then measured (excitation: 360 nm, emission: 460 nm). The measured emissions of the test batches with test substance are compared to those of control batches without test substance (only dimethyl sulfoxide instead of test substance in dimethyl sulfoxide), and IC50 values are calculated from the concentration/activity relationships. Activity data from this test are given in Table B below (in some cases as averages from multiple individual determinations): […]

human factor XIa = molecular target: T2, human factor XIa (Homo sapiens, UniProt P03951); assay: Measurement of FXIa inhibition (fluorogenic peptide substrate, AMC cleavage); assay type: biochemical; conditions: factor XIa from Kordia 0.45 nM; substrate Boc-Glu(OBzl)-Ala-Arg-AMC 10 μM; 30 min at 22° C.; in some cases averages from multiple determinations
T2 construct: purchased Kordia
T2 sequence (P03951 388-625 limits assumed): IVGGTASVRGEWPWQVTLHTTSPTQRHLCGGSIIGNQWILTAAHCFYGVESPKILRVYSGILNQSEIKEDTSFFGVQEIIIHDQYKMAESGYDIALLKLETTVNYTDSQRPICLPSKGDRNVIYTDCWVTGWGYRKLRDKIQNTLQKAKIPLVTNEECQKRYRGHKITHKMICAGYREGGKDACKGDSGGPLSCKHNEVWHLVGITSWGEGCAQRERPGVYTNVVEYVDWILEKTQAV
T2 sequence (P03951 19-387 partner limits assumed): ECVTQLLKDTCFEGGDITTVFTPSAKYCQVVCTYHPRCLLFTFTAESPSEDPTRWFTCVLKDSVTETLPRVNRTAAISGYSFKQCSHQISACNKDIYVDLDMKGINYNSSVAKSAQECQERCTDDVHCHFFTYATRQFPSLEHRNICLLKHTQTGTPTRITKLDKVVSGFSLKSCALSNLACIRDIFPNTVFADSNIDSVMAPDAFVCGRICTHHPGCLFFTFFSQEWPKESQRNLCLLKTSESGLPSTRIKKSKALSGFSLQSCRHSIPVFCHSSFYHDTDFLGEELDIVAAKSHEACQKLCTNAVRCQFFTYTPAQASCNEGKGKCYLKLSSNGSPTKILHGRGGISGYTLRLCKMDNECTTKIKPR
Experimental: as §1, with “The factor XIa” for “To determine the plasma kallikrein”, “invention is determined using” for “invention,”, “system” for “system is used”, “factor XIa” for “plasma kallikrein”, “factor XIa.” for “plasma kallikrein.”
Test substances are dissolved in dimethyl sulfoxide and serially diluted in dimethyl sulfoxide (3000 μM to 0.0078 μM; resulting final concentrations in the test: 50 μM to 0.00013 μM). 1 μl of the diluted substance solutions is placed into each of the wells of white microtitre plates from Greiner (384 wells). 20 μl of assay buffer (50 mM of Tris/HCl pH 7.4; 100 mM of sodium chloride; 5 mM of calcium chloride; 0.1% of bovine serum albumin) and 20 μl of factor XIa from Kordia (0.45 nM in assay buffer) are then added successively. After 15 min of incubation, the enzyme reaction is started by addition of 20 μl of the factor XIa substrate Boc-Glu(OBzl)-Ala-Arg-AMC dissolved in assay buffer (10 μM in assay buffer) from Bachem, the mixture is incubated at room temperature (22° C.) for 30 min and fluorescence is then measured (excitation: 360 nm, emission: 460 nm). The measured emissions of the test batches with test substance are compared to those of control batches without test substance (only dimethyl sulfoxide instead of test substance in dimethyl sulfoxide), and IC50 values are calculated from the concentration/activity relationships. Activity data from this test are given in Table A below (in some cases as averages from multiple individual determinations): […]

Row | SMILES | IC50 (human plasma kallikrein) | IC50 (human factor XIa)
1 | CNC(=O)c1ccc(NC(=O)C(CCOC2(C)CCC2)n2cc(OC)c(-c3cc(Cl)ccc3OCC(F)(F)F)cc2=O)cn1 (racemic) [Example 57, 5-[[2-[4-[5-Chloro-2-(2,2,2-trifluoroethoxy)phenyl]-5-methoxy-2-oxo-1-pyridyl]-4-(1-methylcyclobutoxy)butanoyl]amino]-N-methylpyridine-2-carboxamide] | 0.054 µM | 0.014 µM
2 | COc1cn(C(CCOC2(C)CCC2)C(=O)Nc2ccc3nn(C)cc3c2)c(=O)cc1-c1cc(Cl)ccc1OCC(F)(F)F (racemic) [Example 58, 2-[4-[5-Chloro-2-(2,2,2-trifluoroethoxy)phenyl]-5-methoxy-2-oxo-1-pyridyl]-4-(1-methylcyclobutoxy)-N-(2-methylindazol-5-yl)butanamide] | 0.057 µM | 0.014 µM
3 | COc1cn(C(CCOC2(C)CCC2)C(=O)Nc2ccc(C(N)=O)c(F)c2)c(=O)cc1-c1cc(Cl)ccc1OCC(F)(F)F (racemic) [Example 59, 4-[[2-[4-[5-Chloro-2-(2,2,2-trifluoroethoxy)phenyl]-5-methoxy-2-oxo-1-pyridyl]-4-(1-methylcyclobutoxy)butanoyl]amino]-2-fluorobenzamide] | 0.11 µM | 0.014 µM
4 | COc1cn(C(CCOC2(C)CCC2)C(=O)Nc2ccc(C(N)=O)nc2)c(=O)cc1-c1cc(Cl)ccc1OCC(F)(F)F (racemic) [Example 60, 5-[[2-[4-[5-Chloro-2-(2,2,2-trifluoroethoxy)phenyl]-5-methoxy-2-oxo-1-pyridyl]-4-(1-methylcyclobutoxy)butanoyl]amino]pyridine-2-carboxamide] | 0.084 µM | 0.017 µM
5 | CCNC(=O)c1ccc(NC(=O)C(CCOC2(C)CCC2)n2cc(OC)c(-c3cc(Cl)ccc3OCC(F)(F)F)cc2=O)cn1 (racemic) [Example 61, 5-[[2-[4-[5-Chloro-2-(2,2,2-trifluoroethoxy)phenyl]-5-methoxy-2-oxo-1-pyridyl]-4-(1-methylcyclobutoxy)butanoyl]amino]-N-ethylpyridine-2-carboxamide] | 0.15 µM | 0.043 µM
6 | CCCC(C(=O)Nc1ccc2nccnc2c1)n1cc(OC)c(-c2cc(Cl)ccc2OCC(F)(F)F)cc1=O (racemic) [Example 64, N-(Quinoxalin-6-yl)-2-{4-[5-chloro-2-(2,2,2-trifluoroethoxy)phenyl]-5-methoxy-2-oxopyridin-1(2H)-yl}pentanamide] | 0.059 µM | 0.036 µM
7 | CCCC(C(=O)Nc1ccc2nn(C)cc2c1)n1cc(OC)c(-c2cc(Cl)ccc2OCC(F)(F)F)cc1=O (racemic) [Example 65, 2-{4-[5-Chloro-2-(2,2,2-trifluoroethoxy)phenyl]-5-methoxy-2-oxopyridin-1(2H)-yl}-N-(2-methyl-2H-indazol-5-yl)pentanamide] | 0.14 µM | 0.04 µM
8 | CCCC(C(=O)Nc1ccc(C(=O)NC)nc1)n1cc(OC)c(-c2cc(Cl)ccc2OCC(F)(F)F)cc1=O (racemic) [Example 66, 5-{[2-{4-[5-Chloro-2-(2,2,2-trifluoroethoxy)phenyl]-5-methoxy-2-oxopyridin-1(2H)-yl}pentanoyl]amino}-N-methylpyridine-2-carboxamide] | 0.18 µM | 0.036 µM
9 | CCCC(C(=O)Nc1ccc(C(=O)O)cc1)n1cc(OC)c(-c2cc(Cl)ccc2OCC(F)(F)F)cc1=O (racemic) [Example 67, 4-{[2-{4-[5-Chloro-2-(2,2,2-trifluoroethoxy)phenyl]-5-methoxy-2-oxopyridin-1(2H)-yl}pentanoyl]amino}benzoic acid] | 0.14 µM | 0.0028 µM
10 | CCCC(C(=O)Nc1ccc(C(N)=O)nc1)n1cc(OC)c(-c2cc(Cl)ccc2OCC(F)(F)F)cc1=O (racemic) [Example 68, 5-{[2-{4-[5-Chloro-2-(2,2,2-trifluoroethoxy)phenyl]-5-methoxy-2-oxopyridin-1(2H)-yl}pentanoyl]amino}pyridine-2-carboxamide] | 0.25 µM | 0.037 µM
11 | COc1cn(C(CCOC(C)(C)C)C(=O)Nc2ccc3nc(C(=O)O)cn3c2)c(=O)cc1-c1cc(Cl)ccc1OCC(F)(F)F (racemic) [Example 73, 6-{[4-tert-Butoxy-2-{4-[5-chloro-2-(2,2,2-trifluoroethoxy)phenyl]-5-methoxy-2-oxopyridin-1(2H)-yl}butanoyl]amino}imidazo[1,2-a]pyridine-2-carboxylic acid] | 0.018 µM | 0.002 µM
12 | COc1cc(NC(=O)C(CCOC(C)(C)C)n2cc(OC)c(-c3cc(Cl)ccc3OCC(F)(F)F)cc2=O)ccc1C(=O)O (racemic) [Example 74, 4-{[4-tert-Butoxy-2-{4-[5-chloro-2-(2,2,2-trifluoroethoxy)phenyl]-5-methoxy-2-oxopyridin-1(2H)-yl}butanoyl]amino}-2-methoxybenzoic acid] | 0.21 µM | 0.0069 µM
13 | COc1cn(C(CCOC(C)(C)C)C(=O)Nc2ccc(C(=O)O)s2)c(=O)cc1-c1cc(Cl)ccc1OCC(F)(F)F (racemic) [Example 75, 5-{[4-tert-Butoxy-2-{4-[5-chloro-2-(2,2,2-trifluoroethoxy)phenyl]-5-methoxy-2-oxopyridin-1(2H)-yl}butanoyl]amino}thiophene-2-carboxylic acid] | 0.019 µM | 0.0025 µM
14 | COCCC(C(=O)Nc1ccc(C(=O)O)cc1)n1cc(OC)c(-c2cc(Cl)ccc2OCC(F)(F)F)cc1=O (single isomer, unassigned) [Example 2, 4-[(2-{4-[5-Chloro-2-(2,2,2-trifluoroethoxy)phenyl]-5-methoxy-2-oxopyridin-1(2H)-yl}-4-methoxybutanoyl)amino]benzoic acid] | 0.015 µM | 0.00028 µM
15 | COc1cn(C(CCOC(C)(C)C)C(=O)Nc2ccc(C(=O)O)cc2)c(=O)cc1-c1cc(Cl)ccc1OCC(F)(F)F (single isomer, unassigned) [Example 8, 4-[(4-tert-Butoxy-2-{4-[5-chloro-2-(2,2,2-trifluoroethoxy)phenyl]-5-methoxy-2-oxopyridin-1(2H)-yl}butanoyl)amino]benzoic acid] | 0.019 µM | 0.00094 µM
16 | COc1cn(C(Cc2ccn(C)n2)C(=O)Nc2ccc(C(=O)O)cc2)c(=O)cc1-c1cc(Cl)ccc1OCC(F)(F)F (single isomer, unassigned) [Example 43, 4-{[2-{4-[5-Chloro-2-(2,2,2-trifluoroethoxy)phenyl]-5-methoxy-2-oxopyridin-1(2H)-yl}-3-(1-methyl-1H-pyrazol-3-yl)propanoyl]amino}benzoic acid] | 0.0094 µM | 0.00096 µM
17 | COc1cn(C(C[C@@H]2CCCCO2)C(=O)Nc2ccc(C(=O)O)cc2)c(=O)cc1-c1cc(Cl)ccc1OCC(F)(F)F (single isomer, unassigned) [Example 50] | 0.019 µM | 0.00041 µM
18 | COc1cn(C(CC2COCCO2)C(=O)Nc2ccc(C(=O)O)cc2)c(=O)cc1-c1cc(Cl)ccc1OCC(F)(F)F (single isomer, unassigned) [Example 62, 4-{[2-{4-[5-Chloro-2-(2,2,2-trifluoroethoxy)phenyl]-5-methoxy-2-oxopyridin-1(2H)-yl}-3-(1,4-dioxan-2-yl)propanoyl]amino}benzoic acid] | 0.015 µM | 0.00052 µM
19 | CNC(=O)c1ccc(NC(=O)C(CC2COCCO2)n2cc(OC)c(-c3cc(Cl)ccc3OCC(F)(F)F)cc2=O)cn1 (single isomer, unassigned) [Example 63, 5-{[2-{4-[5-Chloro-2-(2,2,2-trifluoroethoxy)phenyl]-5-methoxy-2-oxopyridin-1(2H)-yl}-3-(1,4-dioxan-2-yl)propanoyl]amino}-N-methylpyridine-2-carboxamide] | 0.014 µM | 0.0013 µM
